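GI50 = concentration required for 50% inhibition of growth. TGI: total growth inhibition.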
Tests used:
Assay in all cases: inhibition of tumour cell growth, NCI panel, 384-well format
[1] = system: COLO 205 colon
[2] = system: IGROV1 ovarian
[3] = system: SF-295 CNS
[4] = system: MOLT-4 leukemia
[5] = system: MCF7 breast
[6] = system: MALME-3M melanoma
[7] = system: SR leukemia
[8] = system: SN12C renal
[9] = system: PC-3 prostate
[10] = system: SNB-75 CNS
[11] = system: HCT-15 colon
[12] = system: UACC-62 melanoma
[13] = system: U251 glioblastoma
[14] = system: SK-MEL-28 melanoma
[15] = system: CAKI-1 renal
[16] = system: LOX IMVI melanoma
[17] = system: OVCAR-8 ovarian
[18] = system: NCI-H460 NSCLC
[19] = system: NCI-H226 lung
[20] = system: TK-10 renal
[21] = system: HCC-2998 colon
[22] = system: 786-0 renal
[23] = system: SF-268 CNS
[24] = system: SF-539 CNS
[25] = system: A498 renal
[26] = system: SK-MEL-5 melanoma
[27] = system: HS 578T breast
[28] = system: NCI-H522 lung
[29] = system: UACC-257 melanoma
[30] = system: HL-60(TB) leukemia
[31] = system: HCT-116 colon
[32] = system: BT-549 breast
[33] = system: HOP-62 NSCLC
[34] = system: OVCAR-3 ovarian
[35] = system: SNB-19 CNS
[36] = system: RXF 393 renal
[37] = system: UO-31 renal
[38] = system: DU-145 prostate
[39] = system: HOP-92 NSCLC
[40] = system: NCI-H23 lung
[41] = system: NCI-H322M lung
[42] = system: KM12 colon
[43] = system: MDA-MB-468 breast
[44] = system: SK-OV-3 ovarian
[45] = system: HT29 colon
[46] = system: A549 NSCLC
[47] = system: SW-620 colon
[48] = system: K-562 leukemia
[49] = system: NCI/ADR-RES ovarian
[50] = system: MDA-MB-435 melanoma
[51] = system: CCRF-CEM leukemia
[52] = system: OVCAR-4 ovarian
[53] = system: ACHN renal
[54] = system: EKVX NSCLC
[55] = system: RPMI-8226 leukemia
[56] = system: MDA-MB-231 breast
[57] = system: M14 melanoma
[58] = system: T-47D breast

Structure (SMILES): CC(C)(O)CS(=O)(=O)Nc1ccc2c(c1)CCN(C(=O)COc1cccnc1)C2
- GI50 [1]: < 10 nM
- TGI [1]: < 10 nM
- GI50 [2]: 19 nM
- TGI [2]: 34.2 nM
- GI50 [3]: 29.5 nM
- TGI [3]: 74.7 nM
- GI50 [4]: < 10 nM
- TGI [4]: < 10 nM
- GI50 [5]: 23.1 nM
- TGI [5]: 48 nM
- GI50 [6]: 83.5 nM
- TGI [6]: 258 nM
- GI50 [7]: 29 nM
- TGI [7]: 60.4 nM
- GI50 [8]: < 10 nM
- TGI [8]: < 10 nM
- GI50 [9]: 10.8 nM
- TGI [9]: 23.2 nM
- GI50 [10]: 17.8 nM
- TGI [10]: 32.6 nM
- GI50 [11]: 33.9 nM
- TGI [11]: 108 nM
- GI50 [12]: 31.3 nM
- TGI [12]: 74.9 nM
- GI50 [13]: < 10 nM
- TGI [13]: 12.8 nM
- GI50 [14]: 22.8 nM
- TGI [14]: 43.4 nM
- GI50 [15]: 20.4 nM
- TGI [15]: 37.9 nM
- GI50 [16]: 33.1 nM
- TGI [16]: 170 nM
- GI50 [17]: < 10 nM
- TGI [17]: < 10 nM
- GI50 [18]: 239 nM
- TGI [18]: 435 nM
- GI50 [19]: 871 nM
- TGI [19]: 26000 nM
- GI50 [20]: 32.3 nM
- TGI [20]: 92 nM
- GI50 [21]: 21.7 nM
- TGI [21]: 42.1 nM
- GI50 [22]: 18.6 nM
- TGI [22]: 34 nM
- GI50 [23]: 20 nM
- TGI [23]: 35 nM
- GI50 [24]: < 10 nM
- TGI [24]: < 10 nM
- GI50 [25]: 390 nM
- TGI [25]: 3610 nM
- GI50 [26]: 20.8 nM
- TGI [26]: 40.3 nM
- GI50 [27]: 17.3 nM
- TGI [27]: 32.4 nM
- GI50 [28]: < 10 nM
- TGI [28]: < 10 nM
- GI50 [29]: 143 nM
- TGI [29]: 590 nM
- GI50 [30]: < 10 nM
- TGI [30]: < 10 nM
- GI50 [31]: < 10 nM
- TGI [31]: < 10 nM
- GI50 [32]: 21.6 nM
- TGI [32]: 40.1 nM
- GI50 [33]: 25 nM
- TGI [33]: 52.2 nM
- GI50 [34]: < 10 nM
- TGI [34]: 12.2 nM
- GI50 [35]: 14.9 nM
- TGI [35]: 29.6 nM
- GI50 [36]: 18.3 nM
- TGI [36]: 35.6 nM
- GI50 [37]: 19.5 nM
- TGI [37]: 35.7 nM
- GI50 [38]: 22.6 nM
- TGI [38]: 45.9 nM
- GI50 [39]: 121 nM
- TGI [39]: 320 nM
- GI50 [40]: 29.1 nM
- TGI [40]: 78.7 nM
- GI50 [41]: 10.9 nM
- TGI [41]: 38.9 nM
- GI50 [42]: 17.3 nM
- TGI [42]: 43.2 nM
- GI50 [43]: 21.7 nM
- TGI [43]: 39.7 nM
- GI50 [44]: 10 nM
- TGI [44]: 23.6 nM
- GI50 [45]: 36 nM
- TGI [45]: 102 nM
- GI50 [46]: 234 nM
- TGI [46]: 494 nM
- GI50 [47]: < 10 nM
- TGI [47]: < 10 nM
- GI50 [48]: < 10 nM
- TGI [48]: 10.9 nM
- GI50 [49]: 145 nM
- TGI [49]: 279 nM
- GI50 [50]: 20 nM
- TGI [50]: 34.6 nM
- GI50 [51]: < 10 nM
- TGI [51]: < 10 nM
- GI50 [52]: 31.3 nM
- TGI [52]: 78.2 nM
- GI50 [53]: 37 nM
- TGI [53]: 127 nM
- GI50 [54]: 46.4 nM
- TGI [54]: 164 nM
- GI50 [55]: 43.6 nM
- TGI [55]: 163 nM
- GI50 [56]: 43.5 nM
- TGI [56]: 135 nM
- GI50 [57]: 19.1 nM
- TGI [57]: 33.6 nM
- GI50 [58]: < 10 nM
- TGI [58]: < 10 nM
